Molecules are shown by their SMILES. Bounds are passed on as bounds.

Consider two molecules from patent publication US5922580A, “Non-reducing saccharide-forming enzyme, its preparation and uses” (priority 1992, dated 1999).

Series [1] concerns the target T1, α-amylase specimen derived from pig pancreas (Sus scrofa, UniProt P00690).
T1 construct: purchased Sigma Chemical Company, St. Louis, USA; host or cells: pig pancreas
T1 sequence (P00690 16-511): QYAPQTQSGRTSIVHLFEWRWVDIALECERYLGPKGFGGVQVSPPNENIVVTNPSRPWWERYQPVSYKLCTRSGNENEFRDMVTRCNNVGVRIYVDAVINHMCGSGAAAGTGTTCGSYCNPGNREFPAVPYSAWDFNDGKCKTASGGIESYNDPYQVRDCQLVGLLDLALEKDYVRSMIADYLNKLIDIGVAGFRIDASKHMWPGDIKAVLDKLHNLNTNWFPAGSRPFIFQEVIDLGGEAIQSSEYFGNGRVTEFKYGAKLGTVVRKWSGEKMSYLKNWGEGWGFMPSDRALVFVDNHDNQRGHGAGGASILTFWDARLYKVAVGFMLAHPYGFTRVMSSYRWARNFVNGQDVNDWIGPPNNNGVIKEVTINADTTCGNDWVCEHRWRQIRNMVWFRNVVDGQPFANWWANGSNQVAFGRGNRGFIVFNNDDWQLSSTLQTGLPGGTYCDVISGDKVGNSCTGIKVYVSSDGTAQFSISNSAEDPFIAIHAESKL
Nature of the series: Hydrolysis by α-amylase. It is filed as biochemical. Also noted: Saccharide composition of hydrolysate: P I / Saccharide composition of hydrolysate: P II / Saccharide composition of hydrolysate: G3 (maltotriose) / Saccharide composition of hydrolysate: G2 (maltose) / Saccharide composition of hydrolysate: G1 (glucose): unit not given here. Particulars: for Hydrolysis by α-amylase: conclusion from Table 6; for Saccharide composition of hydrolysate: G1 (glucose) / Saccharide composition of hydrolysate: G2 (maltose) / Saccharide composition of hydrolysate: G3 (maltotriose) / Saccharide composition of hydrolysate: P I / Saccharide composition of hydrolysate: P II: α-amylase, 10 mg/ml, pH 6.9, 37° C., 18 hours, HPLC. As for the experimental part:
(§1) The enzymatic reaction with the α-amylase was as follows: Dissolving 10 mg of a substrate in one ml of 50 mM phosphate buffer (pH 6.9), mixing the resultant solution with one unit of the α-amylase, and incubating the resultant mixture at 37° C. for 18 hours. The enzymatic reaction with the α-glucosidase was conducted under the same conditions as in the case of α-amylase except that 50 mM acetate buffer (pH 4.0) was used as a buffer. The enzymatic reaction with the rat intestinal acetone powder was carried out under the same conditions as in the case of α-amylase except that 50 mM maleate buffer (pH 6.0) was used as a buffer.

Series [2] concerns glucoamylase. Nature of the series: Enzymatic hydrolysis by glucoamylase. It counts as biochemical. Particulars: for Glucose / Trehalose: 50 mg in 1 ml 50 mM acetate buffer pH 4.5, one unit glucoamylase, 40° C., 6 hours, HPLC; for Molecular ratio (Glucose/Trehalose): glucoamylase hydrolysate. The procedure: Fifty mg aliquots of non-reducing saccharides P I, P II, P III, P IV and P V in Experiment 4 were respectively dissolved in one ml of 50 mM acetate buffer (pH 4.5), admixed with one unit of glucoamylase commercialized by Seikagaku-Kogyo Co., Ltd., Tokyo, Japan, to effect enzymatic hydrolysis at 40° C. for 6 hours. The only saccharides detected in every resultant mixture on HPLC analysis were glucose and trehalose.

Series [3] has as its system rat intestinal acetone powder. Nature of the series: Hydrolysis by rat intestinal acetone powder. To be noted: 50 mM maleate buffer pH 6.0, 37° C., 18 hours. It counts as in vitro ADME. As for the experimental part: as §1
In series [4] the target is β-amylase (Glycine max, UniProt P10538). Nature of the series: Hydrolysis by β-amylase. It counts as biochemical. Particulars: similarly as with glucoamylase.
Sequence of β-amylase (P10538 whole entry, species assumed): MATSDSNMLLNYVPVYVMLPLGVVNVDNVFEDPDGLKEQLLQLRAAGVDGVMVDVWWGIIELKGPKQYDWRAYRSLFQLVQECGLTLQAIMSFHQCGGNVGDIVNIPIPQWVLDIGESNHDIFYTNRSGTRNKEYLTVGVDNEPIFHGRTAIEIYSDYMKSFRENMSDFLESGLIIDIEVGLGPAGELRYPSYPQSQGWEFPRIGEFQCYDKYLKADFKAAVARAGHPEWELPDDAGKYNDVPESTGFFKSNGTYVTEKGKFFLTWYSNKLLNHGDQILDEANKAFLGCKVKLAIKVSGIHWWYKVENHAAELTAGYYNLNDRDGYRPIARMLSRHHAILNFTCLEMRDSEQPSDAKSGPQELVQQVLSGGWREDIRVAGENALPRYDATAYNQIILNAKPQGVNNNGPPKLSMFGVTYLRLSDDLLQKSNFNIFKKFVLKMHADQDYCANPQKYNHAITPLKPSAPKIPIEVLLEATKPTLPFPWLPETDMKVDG
Series [5] in a line: Reducing power by Somogyi-Nelson's method expressed as DE. It is filed as physicochemical. To be noted: high-purity saccharide preparations of Experiment 4. As for the experimental part:
The reducing powders of these novel saccharides were determined on the Somogyi-Nelson's method and expressed by DE (dextrose equivalent).

The nature of series [6]: Maillard reaction with glycine. It counts as physicochemical. To be noted: for Coloration degree (480 nm): 1% glycine, 10% saccharide, 50 mM phosphate buffer pH 7.0, 100° C. for 90 min, absorbance in 1-cm cell; for Coloration degree relative to corresponding material maltooligosaccharide: Maillard reaction, 480 nm. The procedure: As a control, maltotriose, maltotetraose, maltopentaose, maltohexaose and maltoheptaose as a material for the saccharide preparations were similarly treated as above, and measured their absorbances were measured at a wave length of 480 nm.

Series [7] deals with T2, α-glucosidase specimen derived from rice (Oryza sativa subsp. japonica, UniProt Q653V7).
T2 construct: purchased Sigma Chemical Company, St. Louis, USA; host or cells: rice
T2 sequence (Q653V7 34-885): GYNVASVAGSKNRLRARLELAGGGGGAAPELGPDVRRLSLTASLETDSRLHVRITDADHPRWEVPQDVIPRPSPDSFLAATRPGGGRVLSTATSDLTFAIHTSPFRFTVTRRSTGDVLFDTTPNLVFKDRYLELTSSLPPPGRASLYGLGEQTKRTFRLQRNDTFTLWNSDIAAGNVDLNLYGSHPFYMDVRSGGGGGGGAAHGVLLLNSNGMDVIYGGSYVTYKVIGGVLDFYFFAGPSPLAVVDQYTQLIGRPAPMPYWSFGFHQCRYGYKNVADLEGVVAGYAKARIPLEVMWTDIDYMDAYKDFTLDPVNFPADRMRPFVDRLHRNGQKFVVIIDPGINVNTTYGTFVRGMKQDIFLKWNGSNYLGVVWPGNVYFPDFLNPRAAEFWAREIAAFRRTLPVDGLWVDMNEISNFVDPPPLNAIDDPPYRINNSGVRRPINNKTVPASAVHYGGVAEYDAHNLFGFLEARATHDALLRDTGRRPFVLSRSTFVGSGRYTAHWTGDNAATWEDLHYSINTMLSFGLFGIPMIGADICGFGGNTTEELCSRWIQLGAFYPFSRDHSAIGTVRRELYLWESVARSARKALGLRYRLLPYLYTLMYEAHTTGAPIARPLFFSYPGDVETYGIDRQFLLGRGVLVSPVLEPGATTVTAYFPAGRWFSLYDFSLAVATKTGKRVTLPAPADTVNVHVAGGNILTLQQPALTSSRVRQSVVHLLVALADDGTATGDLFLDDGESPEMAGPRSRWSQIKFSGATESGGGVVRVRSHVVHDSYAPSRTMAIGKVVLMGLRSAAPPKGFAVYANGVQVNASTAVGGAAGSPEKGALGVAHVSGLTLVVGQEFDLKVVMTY
Nature of the series: Hydrolysis by α-glucosidase. It counts as biochemical. Particulars: 50 mM acetate buffer pH 4.0, 37° C., 18 hours. The procedure: as §1

For series [8], the system named is 7-week old dd-strain mice. Nature of the series: Acute toxicity test, oral. It is filed as in vivo. To be noted: for Death of mice: oral, highest possible doses.

With `OC[C@H]1O[C@H](O[C@H]2O[C@H](CO)[C@@H](O[C@H]3O[C@H](CO)[C@@H](O[C@H]4O[C@H](CO)[C@@H](O[C@H]5O[C@H](CO)[C@@H](O)[C@H](O)[C@H]5O)[C@H](O)[C@H]4O)[C@H](O)[C@H]3O)[C@H](O)[C@H]2O)[C@H](O)[C@@H](O)[C@@H]1O` [P III, α-maltotriosyl trehalose], in series [1], the “Hydrolysis by α-amylase” value is recorded as “hydrolyzed by α-amylase into lower molecular weight oligosaccharides”, the “Saccharide composition of hydrolysate: G1 (glucose)” value is on record as 1.2, the “Saccharide composition of hydrolysate: G2 (maltose)” value is recorded as 33.0 and the “Saccharide composition of hydrolysate: G3 (maltotriose)” value came to 0. For the same molecule, in series [1], the “Saccharide composition of hydrolysate: P I” value worked out at 61.0 and the “Saccharide composition of hydrolysate: P II” value came out at 4.8. Moreover, in series [2], the Glucose stood at 61.4%, the Trehalose was determined as 38.6% and the “Molecular ratio (Glucose/Trehalose)” value is listed as 3.02. In series [3], the “Saccharide composition of hydrolysate with rat intestinal acetone powder: Glucose” value is given as 62.0%, the “Saccharide composition of hydrolysate with rat intestinal acetone powder: Other saccharides” value was 0.4% and the “Saccharide composition of hydrolysate with rat intestinal acetone powder: Trehalose” value was 37.6%. For the same molecule, the “Hydrolysis by β-amylase” value in series [4] was “one mole of maltose and one mole of P I”. In addition, the DE in series [5] came to 0.10. In series [6], the “Coloration degree (480 nm)” value came out at 0.012 and the “Coloration degree relative to corresponding material maltooligosaccharide” value is recorded as 3-6%. In series [7], the “Saccharide composition of hydrolysate with α-glucosidase: Glucose” value was 61.7%, the “Saccharide composition of hydrolysate with α-glucosidase: Other saccharides” value is on record as 0.2% and the “Saccharide composition of hydrolysate with α-glucosidase: Trehalose” value was 38.1%. Also, in series [8], the Death of mice result is listed as “no mouse died”.
Turning to `OC[C@H]1O[C@H](O[C@H]2O[C@H](CO)[C@@H](O[C@H]3O[C@H](CO)[C@@H](O[C@H]4O[C@H](CO)[C@@H](O[C@H]5O[C@H](CO)[C@@H](O[C@H]6O[C@H](CO)[C@@H](O)[C@H](O)[C@H]6O)[C@H](O)[C@H]5O)[C@H](O)[C@H]4O)[C@H](O)[C@H]3O)[C@H](O)[C@H]2O)[C@H](O)[C@@H](O)[C@@H]1O` [P IV, α-maltotetraosyl trehalose], in series [1], the “Hydrolysis by α-amylase” value is recorded as “hydrolyzed by α-amylase into lower molecular weight oligosaccharides”, the “Saccharide composition of hydrolysate: G1 (glucose)” value is reported as 1.6, the “Saccharide composition of hydrolysate: G2 (maltose)” value was 7.5 and the “Saccharide composition of hydrolysate: G3 (maltotriose)” value amounted to 40.4. Besides, in series [1], the “Saccharide composition of hydrolysate: P I” value was found to be 47.2 and the “Saccharide composition of hydrolysate: P II” value came to 3.3. Moreover, in series [2], the Glucose came to 68.3%, the Trehalose is 31.7% and the “Molecular ratio (Glucose/Trehalose)” value was determined as 4.09. Moreover, in series [3], the “Saccharide composition of hydrolysate with rat intestinal acetone powder: Glucose” value was determined as 68.8%, the “Saccharide composition of hydrolysate with rat intestinal acetone powder: Other saccharides” value turned out to be 0.4% and the “Saccharide composition of hydrolysate with rat intestinal acetone powder: Trehalose” value worked out at 30.8%. In addition, the “Hydrolysis by β-amylase” value in series [4] is “one mole of maltose and one mole of P II”. For the same molecule, the DE in series [5] is recorded as 0.27. For the same molecule, in series [6], the “Coloration degree (480 nm)” value turned out to be 0.016 and the “Coloration degree relative to corresponding material maltooligosaccharide” value is 3-6%. Also, in series [7], the “Saccharide composition of hydrolysate with α-glucosidase: Glucose” value is 69.5%, the “Saccharide composition of hydrolysate with α-glucosidase: Other saccharides” value worked out at 0.3% and the “Saccharide composition of hydrolysate with α-glucosidase: Trehalose” value is listed as 30.2%. In series [8] (mouse, in vivo, po), the median lethal dose (LD50) (in general, the dose expected to kill half of the subjects tested) was at least 50000 mg/kg. For the same molecule, the Death of mice entry in series [8] is recorded as “no mouse died”.
